Patent US20100216724A1, “USE OF F[…] (196-203 ) AS A […] AGENT” (priority 2007, published 2010)
Where no end group is shown, it is not given here.

Tested on: drug-resistant Mycobacterium tuberculosis
Conditions: drug-resistant Mycobacterium tuberculosis growth; peptide 10 micrograms per ml; seven days

Substance: SRNRCNDQ-NH2
- % inhibition: 0.0%
